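All cell lines were grown in 96-well plates and treated with compound for 48 hours. GI50 = concentration required for 50% inhibition of growth. At the TGI there is no net growth.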

Among the test systems are HCC-2998 colon; TK-10 renal; A498 renal; SW-620 colon; MOLT-4 leukemia; SF-295 CNS; MCF7 breast; CAKI-1 renal; MDA-MB-435; HL-60(TB) leukemia.
Holding throughout (assay): NCI anticancer screen, dose series, 48 h

As for `C(#Cc1ccccc1C#Cc1cccs1)c1cccs1`, the GI50 in the experiment on HCC-2998 colon is 24000 nM; with TK-10 renal, 27.7 µM; in the experiment on A498 renal, 22 µM; in the experiment on SW-620 colon, 42000 nM; in the experiment with MOLT-4 leukemia, 25800 nM; with SF-295 CNS, 30600 nM. Also, the GI50 in the experiment with MCF7 breast is 43300 nM; in the experiment with CAKI-1 renal, 43200 nM; with MDA-MB-435, 37200 nM. In addition, the TGI is 65.2 µM in the experiment with HCC-2998 colon; more than 100 µM with TK-10 renal; 81.4 µM with A498 renal; more than 100 µM in the experiment on SW-620 colon; 80.1 µM in the experiment on MOLT-4 leukemia; more than 100 µM with SF-295 CNS. Further, the TGI in the experiment with MCF7 breast, in the experiment on CAKI-1 renal and with MDA-MB-435 was more than 100 µM throughout.
`COc1ccc(-c2cc(=O)[nH]c3c(OC)c4ccccc4c(OC)c23)cc1`: the GI50 was 1280 nM in the experiment on HCC-2998 colon; more than 42.4 µM in the experiment on TK-10 renal; 0.145 µM with A498 renal; 418 nM in the experiment on SW-620 colon; 914 nM in the experiment on MOLT-4 leukemia; 272 nM in the experiment on SF-295 CNS. Besides, the GI50 was 357 nM in the experiment on MCF7 breast, 376 nM with CAKI-1 renal and 276 nM in the experiment with HL-60(TB) leukemia. In addition, the TGI in the experiment with HCC-2998 colon was more than 23.1 µM; with TK-10 renal, more than 100 µM; with SW-620 colon, more than 100 µM; with MOLT-4 leukemia, more than 100 µM; in the experiment with MCF7 breast, more than 100 µM; with CAKI-1 renal, more than 100 µM.
Regarding `CC/C=C1/C(=O)C=C[C@@H]1C/C=C\CCCC(=O)OC`, the GI50 in the experiment with HCC-2998 colon is 2130 nM; in the experiment on TK-10 renal, 4.07 µM; with MOLT-4 leukemia, 1370 nM; in the experiment with SF-295 CNS it was 2600 nM; with MCF7 breast, 1210 nM; in the experiment with CAKI-1 renal it was 2700 nM. For the same molecule, the GI50 in the experiment on HL-60(TB) leukemia was 2170 nM; in the experiment with MDA-MB-435 it was 1860 nM. Also, the TGI turned out to be 3.83 µM in the experiment on HCC-2998 colon; 14.5 µM in the experiment on TK-10 renal; 8.11 µM with MOLT-4 leukemia; 6.76 µM in the experiment with SF-295 CNS; 11 µM in the experiment with MCF7 breast; 7.45 µM in the experiment on CAKI-1 renal. In addition, the TGI in the experiment with HL-60(TB) leukemia came to 6.94 µM; with MDA-MB-435, 4.6 µM.
Take `COc1ccc2cc(C(=O)/C=C/c3ccc(Cl)cc3Cl)ccc2c1`: the GI50 in the experiment with HCC-2998 colon is 15300 nM; in the experiment on TK-10 renal it was 27.7 µM; with A498 renal, 19.8 µM; in the experiment with SW-620 colon, 7830 nM; in the experiment with MOLT-4 leukemia it was 4010 nM; in the experiment with SF-295 CNS it was 35900 nM. In addition, the GI50 with MCF7 breast was 18100 nM; in the experiment with CAKI-1 renal, 15800 nM; in the experiment on MDA-MB-435, 4500 nM. Further, the TGI in the experiment with HCC-2998 colon was 29.1 µM; in the experiment on TK-10 renal, more than 100 µM; in the experiment with A498 renal it was 36 µM; in the experiment with SW-620 colon, 25.5 µM; in the experiment on MOLT-4 leukemia it was 17.7 µM; in the experiment with SF-295 CNS, more than 100 µM. Further, the values for the TGI in the experiment with MCF7 breast, in the experiment on CAKI-1 renal and in the experiment on MDA-MB-435 were more than 100 µM, 70 µM and 17.7 µM, respectively.
As to `CN(CCCn1c2c(c3ccccc3c1=O)C(=O)c1ccccc1-2)CCCn1c2c(c3ccccc3c1=O)C(=O)c1ccccc1-2`, the GI50 is 385 nM in the experiment with HCC-2998 colon; 11.4 µM in the experiment with A498 renal; 188 nM in the experiment on SW-620 colon; 122 nM in the experiment on SF-295 CNS; 2000 nM with CAKI-1 renal; 3650 nM in the experiment on HL-60(TB) leukemia. Besides, in the experiment on MDA-MB-435, the GI50 was 1560 nM. The TGI is 9.46 µM in the experiment on HCC-2998 colon; 74.3 µM in the experiment with A498 renal; more than 100 µM in the experiment on SW-620 colon; 1.06 µM with MOLT-4 leukemia; 9.5 µM in the experiment on SF-295 CNS; 24.8 µM in the experiment on CAKI-1 renal. Besides, the TGI came out at 12.6 µM in the experiment on HL-60(TB) leukemia and 17.8 µM with MDA-MB-435.
`COc1ccc(C(=O)OC2C(OC3C(O)COC(O[C@H]4C[C@H]5[C@@H]6CC=C7C[C@@H](O)CC[C@]7(C)[C@H]6CC[C@]5(C)[C@H]4[C@H](C)C(=O)CCC(C)C)C3OC(N)=O)OCC(O)C2O)cc1` (some centres undefined): the GI50 in the experiment with HCC-2998 colon was 1210 nM; in the experiment on TK-10 renal it was 1.04 µM; in the experiment with A498 renal, 0.00699 µM; with SW-620 colon, 18.3 nM; in the experiment on MOLT-4 leukemia, 5.64 nM; in the experiment on SF-295 CNS it was less than 3 nM. In addition, the GI50 in the experiment with MCF7 breast is 8.55 nM; in the experiment with CAKI-1 renal it was 102 nM; with MDA-MB-435, 34.6 nM. In addition, the TGI with HCC-2998 colon is 6.16 µM; in the experiment with TK-10 renal, 5.23 µM; with A498 renal, 0.0351 µM; in the experiment with SW-620 colon it was 0.429 µM; with MOLT-4 leukemia, 0.0212 µM; with SF-295 CNS, 0.00922 µM. In addition, the TGI in the experiment with MCF7 breast was 0.635 µM; in the experiment with CAKI-1 renal, 0.975 µM; in the experiment with MDA-MB-435, 0.547 µM.
As to `N#CC(NC12CC3CC(CC(C3)C1)C2)c1ccc2c(c1)OCO2` (centres undefined), the TGI in the experiment on HCC-2998 colon, in the experiment on TK-10 renal, in the experiment on SW-620 colon, with MOLT-4 leukemia, in the experiment with SF-295 CNS and with MCF7 breast was more than 100 µM throughout. Moreover, the TGI in the experiment on CAKI-1 renal, with HL-60(TB) leukemia and in the experiment with MDA-MB-435 was more than 100 µM throughout.
Regarding `COc1ccc2nc3cccc([N+](=O)[O-])c3c(NCCCCCC(=O)O)c2c1`, the GI50 with HCC-2998 colon is 1180 nM; with TK-10 renal it was 1.72 µM; in the experiment on A498 renal, 1.87 µM; in the experiment on MOLT-4 leukemia, 26.6 nM; with SF-295 CNS, 447 nM; with MCF7 breast, 17.4 nM. The GI50 in the experiment with CAKI-1 renal is 36.5 nM; with HL-60(TB) leukemia, 37.2 nM. The TGI came out at 2.5 µM in the experiment on HCC-2998 colon; 17.6 µM in the experiment on TK-10 renal; 4.28 µM with A498 renal; 0.268 µM with SW-620 colon; 0.284 µM in the experiment on MOLT-4 leukemia; 4.55 µM with SF-295 CNS. Moreover, the TGI in the experiment on MCF7 breast is 0.596 µM; with CAKI-1 renal it was 0.284 µM; in the experiment on HL-60(TB) leukemia it was 6.2 µM.
As for `CCOC(=O)NC(=O)c1cn(CCOC(=O)CCCCCCCCC(=O)OCCn2cc(C(=O)NC(=O)OCC)c(=O)[nH]c2=O)c(=O)[nH]c1=O`, the TGI in the experiment on HCC-2998 colon, with TK-10 renal, in the experiment with A498 renal, in the experiment with SW-620 colon, in the experiment on MOLT-4 leukemia and in the experiment with SF-295 CNS was more than 100 µM each time. Besides, the TGI in the experiment with CAKI-1 renal and with HL-60(TB) leukemia was more than 100 µM throughout.

The values are drawn from PubChem BioAssay (NCI).
